Laboratory results reported in the METLIN SMRT retention time set (Domingo-Almenara et al. 2019).

Assay: gradient 5% acetonitrile 3 min, to 50% in 2 min, to 85% in 15 min, held 3 min, 100 µL/min
Conditions: column: Zorbax Extend-C18 2.1 x 50 mm; eluents: water / acetonitrile, 0.1% formic acid
Summary of the method: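 Using water and acetonitrile that each contained 0.1% formic acid, mixtures of ~100 pure standards were separated at 100 μL/min on a Zorbax Extend-C18 column (2.1 × 50 mm, 1.8 μm). The HPLC fed a quadrupole time-of-flight mass spectrometer working in positive and negative ionization mode, with dead and dwell volumes of 40 μL and 900 μL. Data were acquired over 3 months. Retention time was read from computationally picked adduct peaks after manual inspection of each.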

SMILES	RP-LC retention time [s]
Cc1cc(C)c(NC(=O)Cn2nc3c4cccc(C)c4ncn3c2=O)c(C)c1	679
CCn1c(C(=O)NCc2ccccc2)cc2sc(Cl)cc21	1110
CC(C)C(NC(=O)Nc1ccc(F)cc1)C(=O)N1CCc2ccccc21 (stereo not given)	960
CCOC(=O)c1cc(S(=O)(=O)N2CCCC2C(=O)NC2CCC(C)CC2)cn1C (stereo not given)	966
CCn1c(N2CCN(C(=O)Nc3cccc(C(C)=O)c3)CC2)nc2ccccc21	576
O=C(NC1CCCCCC1)c1nnc(-c2ccc(S(=O)(=O)N3CCCCC3)cc2)o1	1100
CCCCNC(=O)C1CCCN(C(=O)c2[nH]c(C)cc2C)C1 (stereo not given)	691
COc1cccc(F)c1-c1nc(C)c(C(=O)Nc2nc3ccccc3[nH]2)s1	779
O=C(NCC(c1ccco1)N1CCN(c2ccc(F)cc2)CC1)c1cnccn1 (stereo not given)	585
O=S(=O)(NCC(O)(c1ccccc1)C(F)(F)F)c1cc(F)ccc1F (stereo not given)	870
CCOC(=O)C1CCc2sc(NC(=O)CCc3csc4nc(C5CC5)cn34)nc21 (stereo not given)	599
COc1ccc(-c2nc(NCCC(C)C)c3ccccc3n2)cc1	844
O=C(NC1CCCC1)N1CC(Oc2cccc(-c3nc(-c4ccccc4)no3)c2)C1	1130
Cc1nc(-c2ccc(Cl)cc2)oc1COC(C)(C)C(=O)O	909
Cc1sc2ncnc(N3CCCC(C)C3)c2c1C(=O)Nc1ccc(Br)cc1 (stereo not given)	1310
O=C(c1ccc(Cl)nc1)N1CCCC1c1nc(-c2cccc(C(F)(F)F)c2)no1 (stereo not given)	1070
CCOC(=O)CNC(=O)N1CCN(c2nc3ccccc3n3cccc23)CC1	556
COc1cccc(CNC2=NCCNC23CCN(S(=O)(=O)c2ccc(Cl)cc2)CC3)c1	738
O=C(NCc1cccs1)C1CCN(c2cnc3nccnc3c2)CC1	632
O=C(O)c1ccc(-c2ccc(N3CCCCCC3)nc2)cc1	623
CC(C)C(=O)Oc1ccc(CO)cc1[C@H](CCN(C(C)C)C(C)C)c1ccccc1	830
CN1C(=O)C2CCCCN2c2ccc(C(=O)NCCCN3CCCC3)cc21 (stereo not given)	586
CCOC(=O)c1cn[nH]c1S(=O)(=O)N1CCC(C(N)=O)CC1	585

SMILES	RP-LC retention time [s]
Cn1c(=O)c2c(C(=O)NCC3CCN(Cc4cccc(Cl)c4)CC3)cc(=O)n(C)c2n(C)c1=O	632
COc1ccc(C)cc1NC(=O)C1CCN(C(=O)C(C)(C)C)CC1	784
Cc1ccc(N2CC(c3noc(-c4ccccc4C)n3)CC2=O)cc1 (stereo not given)	1090
Cc1cc(NS(=O)(=O)c2c(C)sc(C)c2-c2n[nH]c(C)c2C)ccc1Br	1180
CCc1ccc(S(=O)(=O)N2CCN(c3cc(C)nc(NC4CCCCC4)n3)CC2)cc1	876
CCN1CCCn2cc(S(=O)(=O)Nc3cc(F)cc(F)c3)cc2C1=O	768
Cc1ccc(-n2nc3c(N4CCCC(C(=O)N5CCOCC5)C4)nnc(C)c3c2C)cc1 (stereo not given)	736
CCCN(CC1CCOC1)C(=O)c1cccc(Br)c1 (stereo not given)	852
Cn1nc(-c2nc(C3CC3)no2)c2c1CCN(C(=O)NCc1ccccc1)C2	788
Cc1ccccc1NC(=O)N1C[C@@H](F)C[C@H]1C(=O)N1CCc2ccccc2C1	780
Cc1ccc(S(=O)(=O)N2CCCC(c3nnc(COc4ccccc4)o3)C2)c(C)c1 (stereo not given)	984
COc1ccc(S(=O)(=O)c2csc3c2NC(=O)CC3c2ccsc2)cc1 (stereo not given)	892
COc1cc(CN2CCC3(CC2)CC(O)CCO3)ccc1F (stereo not given)	541
Cc1cc(C)cc(NC(=O)N2CCC(n3cnc4c(Cl)cccc4c3=O)CC2)c1	892
O=C(NCc1noc(C2CCCC2)n1)c1ccccc1	796
O=C(c1cc(Cl)ccc1F)N1CCc2nc(-c3ccc(Cl)cc3)ncc2C1	1150
CCn1cnc(S(=O)(=O)N2CCCC(C(=O)Nc3ccccc3F)C2)c1 (stereo not given)	735
O=C(Cn1c(=O)c(CCC(=O)NC2CC2)nc2ccccc21)Nc1cccc(Br)c1	781
Cc1cc(=O)n2nc(-c3ccc(Cl)cc3)nc2n1CC(=O)N1CCN(c2ccc(F)cc2)CC1	933
O=C(Nc1ccccc1NC(=O)c1ccccc1C(F)(F)F)c1ccsc1	830
CCc1nc(N)n(CC(=O)NCc2ccc3c(c2)OCO3)c(=O)c1C	556
COc1ccc(-n2cc(C(=O)OCC3CCCO3)c3ccccc3c2=O)cc1 (stereo not given)	993
CCOc1ccc(CCNC(=O)c2snc(C(=O)NCc3ccccc3)c2N)cc1OCC	1090

SMILES	RP-LC retention time [s]
Cc1cc(C(=O)NC(C)C2CC3CCC2C3)c2c(C)noc2n1 (stereo not given)	939
Cc1ccc(NC(=O)C2CCCN(c3ccc4cc(S(=O)(=O)N5CCCC5)ccc4n3)C2)cc1C (stereo not given)	870
CCCC(=O)N1CCN(c2ccc(=O)n(-c3ccc(Cl)cc3)n2)CC1	778
O=C(CCn1cnc2cc(-c3noc(-c4ccc5c(c4)OCO5)n3)ccc21)N1CCCC1	727
O=C(NCCCn1c(-c2ccncc2)nc2cccnc21)Nc1cccc(F)c1	651
CCOc1cccc(CN2CCc3nc(N4CCN(c5ccccc5F)CC4)ncc3C2)c1	852
Cc1cc(=O)n(CC(=O)Nc2ccc(F)cc2F)c(N2CCCCC2)n1	672
CC(C)n1cc(C(=O)O)c(S(=O)(=O)N2CCCC2)n1	712
O=C(c1ccoc1)N1CCC(N2CCc3ccccc32)CC1	830
Cn1nc(N2CCC(NC(=O)CCC3CCCC3)C2)ccc1=O (stereo not given)	716
Cc1sc(-c2cc(C(F)(F)F)on2)cc1S(=O)(=O)N1CCC2(CC1)OCCO2	1120
CC(C)n1cnc2cc(CNC(=O)c3cccs3)ccc21	608
COC[C@@H]1CN(S(=O)(=O)Cc2ccccc2)C[C@H]1c1ccccn1	693
CCSc1nnc(NC(=O)c2csc(Nc3cccnc3)n2)s1	588
Cc1nnc2c(=O)n(CC(=O)NCc3ccc(F)cc3F)c3cccnc3n12	680
CC1CCCN(C(=O)C2c3ccccc3CC(=O)N2C)C1 (stereo not given)	748
Clc1ccc(C(Cn2ccnc2)OCc2c(Cl)cccc2Cl)c(Cl)c1 (stereo not given)	929
O=C(Cc1cc(-c2ccc3c(c2)OCCO3)on1)N1CCN(c2ccccc2F)CC1	895
CC1CCCN(CCCNC(=O)CCCn2c(=O)c3cccn3c3ccc(Br)cc32)C1 (stereo not given)	677
O=c1c2nc(-c3ccc(F)cc3F)cn2ccn1-c1ccc2c(c1)CCC2	1030
CCn1c(=O)c(N2CCC(NC(=O)Nc3cc(C)cc(C)c3)CC2)nc2cccnc21	1010
O=C(CCn1c(CO)nc2ccccc21)c1ccccc1	578
CC(=O)Nc1cccc(-n2cc3c(c2-c2ccccc2Cl)c(=O)n(C)c(=O)n3C)c1	768

SMILES	RP-LC retention time [s]
O=C(CCNc1c(-c2ccccc2)nc2cnccn12)N1CCC(N2CCCCC2)CC1	552
Cc1cc(C)cc(OCCNS(=O)(=O)c2ccc3c(c2)OCCO3)c1	934
CN(C(=O)c1ccc2c(c1)OCO2)C1CCc2nn(CC3CC3)c(=O)n2CC1 (stereo not given)	670
CCn1c(C2CCN(C(=O)Nc3cccc(Cl)c3)CC2)cc(=O)n2nccc12	718
Cc1ccc(Oc2ccc(NS(=O)(=O)c3ccc(F)cc3F)cc2)nn1	720
Cc1ccc(-c2ccc(=O)n(Cc3noc(C(=O)N4CCC(C)CC4)n3)n2)cc1	977
Cn1cccc1C(=O)N1CCc2nn(CC#N)c(=O)n2CC1	622
Cc1ccc(CNC(=O)C2CCN(S(=O)(=O)c3cc(C(=O)N4CCOCC4)cs3)CC2)cc1	765
O=C(NC1CCCCCC1)c1nnc(-c2ccc(S(=O)(=O)N3CCCC3)cc2)o1	1010
Cc1ccc(Nc2ccc(N)cc2S(=O)(=O)O)cc1	652
Cn1c(CN2CCN(C(=O)c3ccc(C#N)cc3)CC2)nc2cc(C(=O)N3CCCC3)ccc21	604
COc1cccc(-c2noc(Cc3nnc(-c4ccc(F)cc4)o3)n2)c1OC	943
Cc1ccc(Nc2nc(-c3ccc(Br)cc3)cs2)nc1	1080
O=C(NCc1cc(F)ccc1F)c1ccc2ncnc(N3CCCCC3)c2c1	671
Cc1noc(-c2ccc(OC3CN(S(=O)(=O)c4cn(C)cn4)C3)cc2)n1	796
CCOC(=O)c1c(C)[nH]c(C(=O)N2CCC(C(C)C(=O)N3CCN(c4ccccc4)CC3)CC2)c1C (stereo not given)	871
Cn1cccc(C(=O)NCCn2nc(-c3cccs3)ccc2=O)c1=O	591
COc1ccc(OCc2nc(CCN(C)C(=O)CC3CCCC3)no2)cc1	919
CS(=O)(=O)N1CCC(OC2CCN(C(=O)Nc3cccc(Cl)c3)CC2)CC1	831
CCn1cc(C)c(C(=O)O)c1CC(=O)N1CCN(C2CCCCC2)CC1	597
CCN1C(=O)CCc2cc(NC(=O)C3CCC3)ccc21	691
